Test results: US8952024B2, “Herbicidal pyrimidone derivatives” (E I du Pont de Nemours and Company, priority 2009, dated 2015)

How the values were obtained:
Test in all cases: Test D pre-/postemergence plant response
Assay type in all cases: in vivo
[1] = test system: itchgrass (Rottboellia cochinchinensis)
How it was run: (§1)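 Scores (0 no effect, 100 complete control) reflect visual assessment against untreated plants after 14 to 21 days. Treatments were pre- and postemergence sprays in solvent with surfactant.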

[2] = test system: green foxtail (Setaria viridis)
How it was run: as §1

kochia (Kochia scoparia) = test system: kochia (Kochia scoparia)
How it was run: as §1

[3] = test system: goosegrass (Eleusine indica)
How it was run: as §1

[4] = test system: bermudagrass (Cynodon dactylon)
How it was run: as §1

[5] = test system: barnyardgrass (Echinochloa crus-galli)
How it was run: as §1

[6] = test system: johnsongrass (Sorghum halepense)
How it was run: as §1

[7] = test system: sowthistle (common sowthistle, Sonchus oleraceous)
How it was run: as §1

[8] = test system: guineagrass (Panicum maximum)
How it was run: as §1

[9] = test system: mallow (common mallow, Malva sylvestris); conditions: Postemergence
How it was run: as §1

[10] = test system: groundsel (common groundsel, Senecio vulgaris); conditions: Postemergence
How it was run: as §1

[11] = test system: dayflower (Virginia (VA) dayflower, Commelina virginica)
How it was run: as §1

[12] = test system: naked crabgrass (Digitaria nuda)
How it was run: as §1

[13] = test system: Surinam grass (Brachiaria decumbens)
How it was run: as §1

[14] = test system: dallisgrass (Paspalum dilatatum)
How it was run: as §1

[15] = Postemergence, 16 g ai/ha, scale 0 to 100
[16] = Postemergence, 31 g ai/ha, scale 0 to 100
[17] = Postemergence, 125 g ai/ha, scale 0 to 100 (0 no effect, 100 complete control)
[18] = Postemergence, 62 g ai/ha, scale 0 to 100 (0 no effect, 100 complete control)
[19] = Preemergence, 16 g ai/ha, scale 0 to 100, 0 no effect, 100 complete control
[20] = Preemergence, 31 g ai/ha, scale 0 to 100 (0 no effect, 100 complete control)
[21] = Preemergence, 62 g ai/ha, scale 0 to 100
[22] = Preemergence, 125 g ai/ha, scale 0 to 100
[23] = Postemergence, 31 g ai/ha, scale 0 to 100 (0 no effect, 100 complete control)
[24] = 125 g ai/ha, scale 0 to 100 (0 no effect, 100 complete control)
[25] = 62 g ai/ha, scale 0 to 100 (0 no effect, 100 complete control)

Cc1ccc(Cl)cc1-n1c(-c2ccccc2)ncc(C(=O)C2=C(O)CCCC2=O)c1=O [Compound 52]
Plant response rating, Itchgrass [1, 15]: 25
Plant response rating, Itchgrass [1, 16]: 50
Plant response rating, Itchgrass [1, 17]: 65
Plant response rating, Itchgrass [1, 18]: 65
Plant response rating, Itchgrass [1, 19]: 0
Plant response rating, Itchgrass [1, 20]: 0
Plant response rating, Itchgrass [1, 21]: 0
Plant response rating, Itchgrass [1, 22]: 5
Plant response rating, Foxtail, Green [2, 15]: 70
Plant response rating, Foxtail, Green [2, 16]: 70
Plant response rating, Foxtail, Green [2, 17]: 95
Plant response rating, Foxtail, Green [2, 18]: 85
Plant response rating, Foxtail, Green [2, 19]: 0
Plant response rating, Foxtail, Green [2, 20]: 0
Plant response rating, Foxtail, Green [2, 21]: 0
Plant response rating, Foxtail, Green [2, 22]: 15
Plant response rating, Kochia (kochia (Kochia scoparia); [15]): 0
Plant response rating, Kochia (kochia (Kochia scoparia); [16]): 0
Plant response rating, Kochia (kochia (Kochia scoparia); [17]): 40
Plant response rating, Kochia (kochia (Kochia scoparia); [18]): 0
Plant response rating, Kochia (kochia (Kochia scoparia); [20]): 25
Plant response rating, Kochia (kochia (Kochia scoparia); [21]): 25
Plant response rating, Kochia (kochia (Kochia scoparia); [22]): 35
Plant response rating, Goosegrass [3, 15]: 65
Plant response rating, Goosegrass [3, 16]: 75
Plant response rating, Goosegrass [3, 17]: 80
Plant response rating, Goosegrass [3, 18]: 75
Plant response rating, Goosegrass [3, 19]: 5
Plant response rating, Goosegrass [3, 20]: 60
Plant response rating, Goosegrass [3, 21]: 80
Plant response rating, Goosegrass [3, 22]: 98
Plant response rating, Bermudagrass [4, 15]: 75
Plant response rating, Bermudagrass [4, 23]: 75
Plant response rating, Bermudagrass [4, 17]: 80
Plant response rating, Bermudagrass [4, 18]: 75
Plant response rating, Bermudagrass [4, 19]: 30
Plant response rating, Bermudagrass [4, 20]: 70
Plant response rating, Bermudagrass [4, 21]: 90
Plant response rating, Bermudagrass [4, 22]: 100
Plant response rating, Barnyardgrass [5, 15]: 75
Plant response rating, Barnyardgrass [5, 23]: 75
Plant response rating, Barnyardgrass [5, 17]: 80
Plant response rating, Barnyardgrass [5, 18]: 75
Plant response rating, Barnyardgrass [5, 19]: 0
Plant response rating, Barnyardgrass [5, 20]: 0
Plant response rating, Barnyardgrass [5, 21]: 0
Plant response rating, Barnyardgrass [5, 22]: 10
Plant response rating, Johnsongrass [6, 15]: 65
Plant response rating, Johnsongrass [6, 16]: 75
Plant response rating, Johnsongrass [6, 18]: 85
Plant response rating, Johnsongrass [6, 19]: 0
Plant response rating, Johnsongrass [6, 20]: 0
Plant response rating, Johnsongrass [6, 21]: 75
Plant response rating, Johnsongrass [6, 22]: 95
Plant response rating, Sowthistle [7, 15]: 80
Plant response rating, Sowthistle [7, 16]: 95
Plant response rating, Sowthistle [7, 17]: 100
Plant response rating, Sowthistle [7, 18]: 98
Plant response rating, Sowthistle [7, 19]: 0
Plant response rating, Sowthistle [7, 20]: 80
Plant response rating, Sowthistle [7, 22]: 100
Plant response rating, Guineagrass [8, 15]: 50
Plant response rating, Guineagrass [8, 16]: 70
Plant response rating, Guineagrass [8, 17]: 75
Plant response rating, Guineagrass [8, 18]: 75
Plant response rating, Guineagrass [8, 19]: 0
Plant response rating, Guineagrass [8, 21]: 50
Plant response rating, Mallow ([9]; 16 g ai/ha, scale 0 to 100): 50
Plant response rating, Mallow ([9]; 31 g ai/ha, scale 0 to 100): 65
Plant response rating, Mallow [9, 24]: 75
Plant response rating, Mallow [9, 25]: 65
Plant response rating, Groundsel ([10]; 16 g ai/ha, scale 0 to 100): 100
Plant response rating, Groundsel ([10]; 31 g ai/ha, scale 0 to 100): 100
Plant response rating, Groundsel [10, 24]: 100
Plant response rating, Groundsel [10, 25]: 100
Plant response rating, Dayflower, VA [11, 15]: 5
Plant response rating, Dayflower, VA [11, 16]: 5
Plant response rating, Dayflower, VA [11, 17]: 60
Plant response rating, Dayflower, VA [11, 18]: 30
Plant response rating, Dayflower, VA [11, 19]: 0
Plant response rating, Dayflower, VA [11, 20]: 0
Plant response rating, Dayflower, VA [11, 21]: 0
Plant response rating, Dayflower, VA [11, 22]: 40
Plant response rating, Crabgrass, Naked [12, 15]: 70
Plant response rating, Crabgrass, Naked [12, 16]: 75
Plant response rating, Crabgrass, Naked [12, 17]: 95
Plant response rating, Crabgrass, Naked [12, 18]: 95
Plant response rating, Crabgrass, Naked [12, 19]: 0
Plant response rating, Crabgrass, Naked [12, 20]: 0
Plant response rating, Crabgrass, Naked [12, 21]: 20
Plant response rating, Crabgrass, Naked [12, 22]: 80
Plant response rating, Surinam Grass [13, 16]: 65
Plant response rating, Surinam Grass [13, 17]: 90
Plant response rating, Surinam Grass [13, 18]: 80
Plant response rating, Surinam Grass [13, 19]: 0
Plant response rating, Surinam Grass [13, 20]: 98
Plant response rating, Surinam Grass [13, 22]: 98
Plant response rating, Dallisgrass [14, 15]: 60
Plant response rating, Dallisgrass [14, 16]: 65
Plant response rating, Dallisgrass [14, 17]: 75
Plant response rating, Dallisgrass [14, 18]: 70
Plant response rating, Dallisgrass [14, 19]: 5
Plant response rating, Dallisgrass [14, 20]: 10
Plant response rating, Dallisgrass [14, 21]: 50
Plant response rating, Dallisgrass [14, 22]: 95
